The results in this text go back to patent US10207985B2, “Compounds” (SYNGENTA PARTICIPATIONS AG, priority 2013, dated 2019).

Take `Cc1ccsc1C1CC[C@H]1NC(=O)c1ccccc1C(F)(F)F` (stereo partly shown) [Compound 116-4]: the melting point (usually the temperature of the solid-liquid transition) is 111 to 112 °C.
